Reference: article PMC10141516 (Pharmaceutics, 2023)

Assay: Apparent solubility test (USP <1236>)
Details: for solubility: 20 °C, thermodynamic from solid; for apparent solubility, USP <1236> term: other solvents (water, pH 1.2 to 12.0 buffers)
Experimental: Then, 200 μL of each solvent was added and stirred at 400 rpm. The temperature of the sample was maintained at 20 ± 2 °C. After shaking for 30 s every 5 min, 200 μL of each solvent was added until no particles of the API were visible. The apparent solubility of the two main components was estimated through the point at which all of the API dissolved and became clear.

**Q.** Which solubility (organic solvent or mixture) does the source give for N[C@@H](CC(=O)N1CCn2c(nnc2C(F)(F)F)C1)Cc1cc(F)c(F)cc1F.O.O=P(O)(O)O [Sitagliptin, (R)-3-Amino-1-(3-(trifluoromethyl)-5,6-dihydro-[1,2,4]triazolo[4,3-a]pyrazin-7(8H)-yl)-4-(2,4,5-trifluorophenyl)butan-1-one phosphate monohydrate] here?
**A.** < 0.1 mg/mL

**Q.** And the solubility (pH 1.2, aqueous buffer)?
**A.** 1 to 10 mg/mL

**Q.** What about the solubility (pH 2, aqueous buffer) of the same molecule?
**A.** 1 to 10 mg/mL

**Q.** And the solubility (pH 3, aqueous buffer)?
**A.** 1 to 10 mg/mL

**Q.** What about the solubility (pH 4, aqueous buffer) of the same molecule?
**A.** 1 to 10 mg/mL

**Q.** What about the solubility (pH 5, aqueous buffer) of the same molecule?
**A.** 1 to 10 mg/mL

**Q.** What about the solubility (pH 6, aqueous buffer) of the same molecule?
**A.** 1 to 10 mg/mL

**Q.** And the solubility (pH 6.8, aqueous buffer)?
**A.** 1 to 10 mg/mL

**Q.** What about the solubility (pH 7, aqueous buffer) of the same molecule?
**A.** 1 to 10 mg/mL

**Q.** What about the solubility (pH 8, aqueous buffer) of the same molecule?
**A.** 1 to 10 mg/mL

**Q.** And the solubility (pH 9, aqueous buffer)?
**A.** 1 to 10 mg/mL

**Q.** And the solubility (pH 10, aqueous buffer)?
**A.** 0.1 to 1 mg/mL

**Q.** What about the solubility (pH 11, aqueous buffer) of the same molecule?
**A.** 1 to 10 mg/mL

**Q.** What about the solubility (pH 12, aqueous buffer) of the same molecule?
**A.** 1 to 10 mg/mL

**Q.** And the solubility (water)?
**A.** 1 to 10 mg/mL

**Q.** And the “apparent solubility, USP <1236> term” value?
**A.** soluble

**Q.** For CCOc1ccc(Cc2cc([C@@H]3O[C@H](CO)[C@@H](O)[C@H](O)[C@H]3O)ccc2Cl)cc1 [Dapagliflozin, (1S)-1,5-Anhydro-1-C-[4-chloro-3-[(4-ethoxyphenyl)methyl]phenyl]-D-glucitol (S)-propane-1,2-diol (1:1) monohydrate], which solubility (acetonitrile, organic solvent or mixture) is on record?
**A.** 33 to 100 mg/mL

**Q.** And the solubility (buffer solution, pH 3, aqueous buffer)?
**A.** 0.1 to 1 mg/mL

**Q.** What about the solubility (buffer solution, pH 4, aqueous buffer) of the same molecule?
**A.** 0.1 to 1 mg/mL

**Q.** What about the solubility (buffer solution, pH 5, aqueous buffer) of the same molecule?
**A.** 0.1 to 1 mg/mL

**Q.** And the solubility (buffer solution, pH 6, aqueous buffer)?
**A.** 0.1 to 1 mg/mL

**Q.** What about the solubility (buffer solution, pH 6.8, aqueous buffer) of the same molecule?
**A.** 0.1 to 1 mg/mL

**Q.** And the solubility (buffer solution, pH 7, aqueous buffer)?
**A.** 0.1 to 1 mg/mL

**Q.** What about the solubility (buffer solution, pH 8, aqueous buffer) of the same molecule?
**A.** 0.1 to 1 mg/mL

**Q.** And the solubility (buffer solution, pH 9, aqueous buffer)?
**A.** 0.1 to 1 mg/mL

**Q.** What about the solubility (buffer solution, pH 10, aqueous buffer) of the same molecule?
**A.** 0.1 to 1 mg/mL

**Q.** What about the solubility (buffer solution, pH 11, aqueous buffer) of the same molecule?
**A.** 0.1 to 1 mg/mL

**Q.** What about the solubility (deionized water, water) of the same molecule?
**A.** 0.1 to 1 mg/mL

**Q.** And the solubility (ethanol, organic solvent or mixture)?
**A.** 33 to 100 mg/mL

**Q.** What about the solubility (methanol, organic solvent or mixture) of the same molecule?
**A.** 100 to 1000 mg/mL

**Q.** What about the “apparent solubility, USP <1236> term” value of the same molecule?
**A.** very slightly soluble

**Q.** And the solubility (pH 1.2 buffer solution, pH 1.2, aqueous buffer)?
**A.** 0.1 to 1 mg/mL

**Q.** What about the solubility (pH 2.0 buffer solution, pH 2, aqueous buffer) of the same molecule?
**A.** 0.1 to 1 mg/mL

**Q.** What about the solubility (pH 12.0 buffer solution, pH 12, aqueous buffer) of the same molecule?
**A.** 0.1 to 1 mg/mL
